Molecules are shown by their SMILES.

The target in data set [1] is MRP1 (Homo sapiens, UniProt P33527).
Experimental: (§1) The incubations were carried out in the presence of 4 mM ATP or AMP to distinguish between transporter-mediated uptake and passive diffusion into the vesicles. […] Afterwards, the reaction mixtures were pre-incubated for 15 min at 37 °C for MRP1 or at 32 °C for BCRP, MDR1 and MRP4, respectively. The transporter assay was initiated through the addition of 25 μL of pre-warmed 12 mM MgATP (or 12 mM AMP in assay buffer as a background control). The reactions were quenched through the addition of 200 μL of ice-cold washing buffer and immediate filtration via glass fiber filters mounted onto a 96-well plate (filter plate). The filters were washed (5 × 200 μL of ice-cold washing buffer) and dried, and the amount of probe substrate inside the filtered vesicles was determined using LSC. The experiments were conducted in triplicate.
(§2) Calculation of ATP-dependent transport and inhibition for vesicular transport inhibition
(§3) For all wells the amount of the translocated probe substrate was determined in counts per minute (cpm).
(§4) ATP-dependent transport (pmol/mg protein/min) is calculated for each concentration using the following
𝐴𝑐𝑐𝐴𝑇𝑃 ∙ 𝑉 ∙ 𝐶𝐶 𝐴𝑐𝑐𝐴𝑀𝑃 ∙𝑉 ∙𝐶𝐶
(§5) 𝐴𝑇𝑃 − 𝑑𝑒𝑝𝑒𝑛𝑑𝑒𝑛𝑡 𝑎𝑐𝑐𝑢𝑚𝑢𝑙𝑎𝑡𝑖𝑜𝑛 = ( 𝑇𝐶𝑃𝑀 𝑠𝑢𝑏) − ( 𝑇𝐶𝑃𝑀 𝑠𝑢𝑏)
(§6) • AccATP: probe substrate accumulation with ATP (cpm)
(§7) • AccAMP: probe substrate accumulation with AMP (cpm)
(§8) • Tcpm: cpm in dosing solution V: volume per well (µL)
(§9) • CCsub: probe substrate concentration (µM)
• Prot: total protein per well (mg)
• t: incubation time (min)
(§10) Relative ATP-dependent transport (%) values were calculated using the following equation:
(§11) 𝑅𝑒𝑙𝑎𝑡𝑖𝑣𝑒 𝐴𝑇𝑃 − 𝑑𝑒𝑝𝑒𝑛𝑑𝑒𝑛𝑡 𝑡𝑟𝑎𝑛𝑠𝑝𝑜𝑟𝑡 (%) = 𝐴 − 𝐵 ∙ 100
(§12) • A: amount of translocated substrate in the presence of test substance (TS) and ATP
(§13) • B: amount of translocated substrate in the presence of test substance (TS) and AMP
(§14) • C: amount of translocated substrate in the presence of solvent and ATP
(§15) • D: amount of translocated substrate in the presence of solvent and AMP
(§16) Relative inhibition (%) is calculated by setting probe substrate transport in the absence of test substance as
(§17) 𝑅𝑒𝑙𝑎𝑡𝑖𝑣𝑒 𝑖𝑛ℎ𝑖𝑏𝑖𝑡𝑖𝑜𝑛 (%) = 𝐴𝑐𝑐𝑆𝑝𝑒𝑐𝑖𝑓𝑖𝑐,𝑥 ∙100
(§18) • Accspecific,x: transporter specific accumulation for a given sample (pmol/mg/min)
(§19) • Accspecific,vehicle: transporter specific accumulation for a solvent control (pmol/mg/min)
Data set [2] has as its target T1, MRP4 (Homo sapiens, UniProt O15439).
T1 construct: host or cells: HEK293 (membrane vesicles)
T1 sequence (O15439 1-1325): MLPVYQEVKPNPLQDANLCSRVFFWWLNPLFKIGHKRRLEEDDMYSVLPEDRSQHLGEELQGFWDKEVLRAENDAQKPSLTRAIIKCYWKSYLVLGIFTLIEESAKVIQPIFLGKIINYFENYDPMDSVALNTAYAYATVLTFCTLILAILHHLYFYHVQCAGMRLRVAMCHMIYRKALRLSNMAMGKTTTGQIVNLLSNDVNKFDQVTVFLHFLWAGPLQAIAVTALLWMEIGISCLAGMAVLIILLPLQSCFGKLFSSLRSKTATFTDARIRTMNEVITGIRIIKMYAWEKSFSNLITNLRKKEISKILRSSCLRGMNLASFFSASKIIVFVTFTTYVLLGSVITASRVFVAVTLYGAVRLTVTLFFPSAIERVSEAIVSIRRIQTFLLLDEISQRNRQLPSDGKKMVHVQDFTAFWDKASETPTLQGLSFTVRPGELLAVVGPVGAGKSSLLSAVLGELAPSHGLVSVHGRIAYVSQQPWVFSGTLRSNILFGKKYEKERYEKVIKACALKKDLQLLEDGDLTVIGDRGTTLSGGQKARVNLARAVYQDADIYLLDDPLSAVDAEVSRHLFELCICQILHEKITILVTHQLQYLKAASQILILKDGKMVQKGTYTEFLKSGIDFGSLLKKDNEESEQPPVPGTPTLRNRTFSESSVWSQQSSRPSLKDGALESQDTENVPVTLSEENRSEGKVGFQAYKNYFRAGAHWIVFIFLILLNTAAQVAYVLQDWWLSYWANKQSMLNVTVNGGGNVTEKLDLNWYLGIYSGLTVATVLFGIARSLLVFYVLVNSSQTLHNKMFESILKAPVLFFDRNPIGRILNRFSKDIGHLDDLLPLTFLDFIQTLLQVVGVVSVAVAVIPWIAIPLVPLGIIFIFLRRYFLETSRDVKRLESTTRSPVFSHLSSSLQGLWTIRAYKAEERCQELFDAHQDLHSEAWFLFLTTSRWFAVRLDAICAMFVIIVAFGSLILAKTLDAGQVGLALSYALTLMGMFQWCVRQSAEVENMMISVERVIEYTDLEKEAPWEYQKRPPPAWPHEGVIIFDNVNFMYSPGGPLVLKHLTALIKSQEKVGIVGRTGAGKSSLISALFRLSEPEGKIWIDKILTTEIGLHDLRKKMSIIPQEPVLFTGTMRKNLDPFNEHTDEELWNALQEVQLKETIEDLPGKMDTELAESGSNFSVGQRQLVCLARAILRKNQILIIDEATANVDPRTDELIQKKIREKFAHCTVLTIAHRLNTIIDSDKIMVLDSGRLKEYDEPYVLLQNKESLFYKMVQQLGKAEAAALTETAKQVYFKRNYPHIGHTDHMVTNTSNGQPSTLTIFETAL
The experiment in a line: Vesicular transport inhibition assay (ABC), MRP4-mediated DHEAS transport, HEK293 membrane vesicles. It counts as in vitro ADME. Particulars: positive control inhibitor 150.0 µM, DHEAS probe.

In data set [3] the target is MDR1 (Homo sapiens, UniProt P08183).
Sequence of MDR1 (P08183 whole entry): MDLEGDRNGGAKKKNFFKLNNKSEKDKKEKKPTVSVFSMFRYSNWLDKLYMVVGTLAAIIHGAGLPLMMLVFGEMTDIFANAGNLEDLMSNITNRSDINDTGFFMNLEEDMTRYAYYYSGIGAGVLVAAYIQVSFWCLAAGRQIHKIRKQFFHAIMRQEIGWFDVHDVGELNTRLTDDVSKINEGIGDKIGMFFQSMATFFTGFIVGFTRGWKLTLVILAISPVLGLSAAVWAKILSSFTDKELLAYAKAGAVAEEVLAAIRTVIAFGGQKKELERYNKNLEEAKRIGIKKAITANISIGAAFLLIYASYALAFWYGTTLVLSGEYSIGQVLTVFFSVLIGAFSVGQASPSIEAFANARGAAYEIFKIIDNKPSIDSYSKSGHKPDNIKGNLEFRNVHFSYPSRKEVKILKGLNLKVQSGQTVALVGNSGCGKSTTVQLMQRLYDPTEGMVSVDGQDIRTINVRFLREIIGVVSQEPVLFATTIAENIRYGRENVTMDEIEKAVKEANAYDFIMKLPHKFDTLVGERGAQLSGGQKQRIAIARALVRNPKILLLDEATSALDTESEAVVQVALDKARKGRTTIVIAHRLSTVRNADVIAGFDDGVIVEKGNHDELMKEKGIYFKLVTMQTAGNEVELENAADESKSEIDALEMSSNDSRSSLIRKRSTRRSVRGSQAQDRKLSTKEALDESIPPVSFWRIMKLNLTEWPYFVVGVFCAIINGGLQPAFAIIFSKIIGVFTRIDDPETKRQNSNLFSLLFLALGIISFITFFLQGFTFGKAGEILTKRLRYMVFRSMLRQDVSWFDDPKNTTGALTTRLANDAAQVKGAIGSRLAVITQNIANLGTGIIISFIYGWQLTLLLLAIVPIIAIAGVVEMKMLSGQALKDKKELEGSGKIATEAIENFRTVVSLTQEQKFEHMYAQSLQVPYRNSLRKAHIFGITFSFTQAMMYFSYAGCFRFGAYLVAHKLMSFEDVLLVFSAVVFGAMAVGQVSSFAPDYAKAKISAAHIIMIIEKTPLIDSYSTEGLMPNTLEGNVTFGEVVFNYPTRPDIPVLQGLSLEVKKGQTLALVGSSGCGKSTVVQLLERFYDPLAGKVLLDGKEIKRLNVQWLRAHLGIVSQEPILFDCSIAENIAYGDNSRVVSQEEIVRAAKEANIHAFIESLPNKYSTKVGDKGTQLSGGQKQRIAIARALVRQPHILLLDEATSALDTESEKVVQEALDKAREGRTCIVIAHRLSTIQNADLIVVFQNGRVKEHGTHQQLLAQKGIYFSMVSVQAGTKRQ
Experimental: as §1, §2, §3, §4
𝐴𝑐𝑐𝐴𝑇𝑃 ∙ 𝑉 ∙ 𝐶𝐶 𝐴𝑐𝑐𝐴𝑀𝑃 ∙𝑉 ∙𝐶𝐶
as §5, §6, §7, §8, §9
• Prot: total protein per well (mg)
• t: incubation time (min)
as §10, §11, §12, §13, §14, §15, §16, §17, §18, §19
Data are expressed as mean (n=3)
N-methyl quinidine (NMQ) measured in the vesicular transport inhibition assay.
Nominal ATP Relative ATP Relative
Compound concentration [µM] dependent transport dependent transport inhibition [%]
[pmol/mg/min] [% of control]
Data are expressed as mean (n=3) ± SD.
On the set-up of data set [4]: method as in PMID 37191680. To be noted: PSMA-null mice; cited from earlier work.
For data set [5] the following is noted: cited from earlier work.
Details of data set [6]: method as in PMID 29651569. Particulars: within the first 24 h post injection; cited from earlier work.
The mark [7] stands for this setting: positive control inhibitor 200.0 µM, E217βG probe, mean (n=3) ± SD.

Sequence of MRP1 (P33527 whole entry): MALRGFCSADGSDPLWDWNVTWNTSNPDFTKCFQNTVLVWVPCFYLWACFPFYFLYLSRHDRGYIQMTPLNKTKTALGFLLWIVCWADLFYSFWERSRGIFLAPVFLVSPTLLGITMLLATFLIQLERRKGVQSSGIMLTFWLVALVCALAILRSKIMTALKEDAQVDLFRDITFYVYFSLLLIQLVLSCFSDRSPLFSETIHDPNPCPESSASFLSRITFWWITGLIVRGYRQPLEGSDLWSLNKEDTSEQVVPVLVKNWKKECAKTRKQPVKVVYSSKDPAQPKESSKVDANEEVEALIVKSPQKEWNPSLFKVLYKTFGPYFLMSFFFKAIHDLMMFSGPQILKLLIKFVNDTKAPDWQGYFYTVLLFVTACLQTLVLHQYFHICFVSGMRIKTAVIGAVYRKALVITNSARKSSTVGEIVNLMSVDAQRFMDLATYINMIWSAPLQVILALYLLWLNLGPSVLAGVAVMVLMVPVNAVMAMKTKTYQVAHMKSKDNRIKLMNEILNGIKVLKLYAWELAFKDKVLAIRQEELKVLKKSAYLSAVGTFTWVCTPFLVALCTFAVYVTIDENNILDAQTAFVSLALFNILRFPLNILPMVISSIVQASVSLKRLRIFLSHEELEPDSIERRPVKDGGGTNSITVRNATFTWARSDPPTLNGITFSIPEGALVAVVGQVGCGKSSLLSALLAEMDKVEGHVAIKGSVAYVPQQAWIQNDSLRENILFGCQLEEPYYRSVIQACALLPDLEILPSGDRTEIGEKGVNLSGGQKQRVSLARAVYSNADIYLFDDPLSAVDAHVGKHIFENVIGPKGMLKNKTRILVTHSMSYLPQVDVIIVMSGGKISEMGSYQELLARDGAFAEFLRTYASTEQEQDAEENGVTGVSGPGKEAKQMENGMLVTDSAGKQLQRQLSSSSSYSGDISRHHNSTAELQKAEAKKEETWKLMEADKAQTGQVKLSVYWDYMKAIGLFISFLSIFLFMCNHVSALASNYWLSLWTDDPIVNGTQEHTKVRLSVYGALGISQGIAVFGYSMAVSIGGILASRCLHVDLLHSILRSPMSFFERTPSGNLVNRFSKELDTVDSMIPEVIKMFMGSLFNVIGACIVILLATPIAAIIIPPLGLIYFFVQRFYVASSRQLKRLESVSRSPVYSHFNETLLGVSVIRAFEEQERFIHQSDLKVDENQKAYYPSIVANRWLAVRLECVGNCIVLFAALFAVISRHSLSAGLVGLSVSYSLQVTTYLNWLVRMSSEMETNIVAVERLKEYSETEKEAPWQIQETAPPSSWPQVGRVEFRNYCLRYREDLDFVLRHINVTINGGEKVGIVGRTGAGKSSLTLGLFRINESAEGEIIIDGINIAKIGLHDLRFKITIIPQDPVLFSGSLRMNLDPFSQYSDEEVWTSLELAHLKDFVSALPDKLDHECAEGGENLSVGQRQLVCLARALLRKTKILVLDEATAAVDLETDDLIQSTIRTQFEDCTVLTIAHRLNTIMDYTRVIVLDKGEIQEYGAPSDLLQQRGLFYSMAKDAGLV

In the case of `CCc1oc2ccccc2c1C(=O)c1cc(Br)c(O)c(Br)c1` [Benzbromarone, benzbromarone, reference compound], the inhibition at 3 min, 200 µM in data set [1] (human, membrane vesicles from Sf9 cells transfected with human MRP1, […], 0.2 µM) was 104%. Also, in data set [1] (setting [7]), the ATP dependent transport is -26.33 ± 10.19 pmol/mg/min and the “Relative ATP dependent transport” value is -3.87 ± 1.50 % of control.
As to `CN(C)C(=O)CCSC(SCCC(=O)O)c1cccc(/C=C/c2ccc3ccc(Cl)cc3n2)c1` (stereo not drawn) [MK-571, reference compound], the inhibition at 1.5 min, 150 µM in data set [2] (human, probe dehydroepiandrosterone sulfate (DHEAS), 0.5 µM, read-out: Relative inhibition) was 98%. For the same molecule, in data set [2] (mean (n=3) ± SD), the ATP dependent transport was found to be 256.00 ± 59.15 pmol/mg/min and the “Relative ATP dependent transport” value is given as 2.06 ± 0.48 % of control.
Take `C/C=C/C[C@@H](C)C(=O)[C@H]1C(=O)N[C@@H](C(C)C)C(=O)N(C)CC(=O)N(C)[C@@H](CC(C)C)C(=O)N[C@@H](C(C)C)C(=O)N(C)[C@@H](CC(C)C)C(=O)N[C@@H](C)C(=O)N[C@H](C)C(=O)N(C)[C@@H](CC(C)C)C(=O)N(C)[C@@H](CC(C)C)C(=O)N(C)[C@@H](C(C)C)C(=O)N1C` [Valspodar, reference compound]: in data set [3] (human, probe N-methyl quinidine (NMQ), 1.0 µM), the inhibition at 1 min, 1 µM was 96%. Besides, in data set [3] (positive control inhibitor 1.00 µM, NMQ probe, mean (n=3) ± SD), the “Relative ATP dependent transport” value is 4.28 ± 0.62 % of control.
As for `O=C([O-])CN(CCN(CC(=O)[O-])Cc1cc(CCC(=O)NCCCCCC(=O)NCCCC[C@H](NC(=O)N[C@@H](CCC(=O)O)C(=O)O)C(=O)O)ccc1[O-])Cc1cc(CCC(=O)O)ccc1[O-].[68Ga+3].[OH3+]` [[^68Ga]Ga-PSMA-11], the “Uptake by healthy kidneys and SGs” value in data set [4] was “greatly reduced uptake”.
Regarding `O=C([O-])CN1CCN(CC(=O)[O-])CCN(CC(=O)NCC2CCC(C(=O)NC(Cc3ccc4ccccc4c3)C(=O)NCCCCC(NC(=O)NC(CCC(=O)O)C(=O)O)C(=O)O)CC2)CCN(CC(=O)[O-])CC1.[177Lu+3]` (stereo not drawn) [[^177Lu]Lu-PSMA-617], in data set [5] (kidneys), the “Accumulation in the kidneys” value is reported as 0.5–0.6 Gy/GBq injected dose. In addition, the “Accumulation in the salivary glands” value in data set [5] (salivary glands (SGs)) was “up to 1 Gy/GBq injected dose”. Moreover, in data set [6], the “Excreted via the renal route in urine” value was “up to 70%”.

By inhibition is commonly meant the change of the read-out against control, counted positive when it falls.

(Values after PMC11053447, “Human ABC and SLC Transporters: The Culprit Responsible for Unspecific PSMA-617 Uptake?” (Pharmaceuticals, 2024).)
